pIC50: −log10 of the molar value. “And” between values parts separate entries of the source, which are not always exact repeats. Equal values may be shown once. Read-outs that look alike come from different tables or passages of the source.
Columns and labels:
Chk1 = Chk1 (Homo sapiens (Human), UniProt O14757); experiment: biochemical; format: biochemical; settings: read-out: Chk1 inhibition IC50
Description: The compounds of the present disclosure used in the experiments were self-prepared, and their chemical names and structural formulas were shown in the preparation embodiments of each compound. The determination mixture containing embodiment compounds of the present disclosure and Chk1 and Chk2 kinases were incubated in a microtiter plate, and CHK1 inhibitor activity of compounds were tested by monitoring the phosphorylation of Chk1 and Chk2 kinases on a synthetic peptide substrate with a specific amino acid sequence ([…], SEQ ID NO: 1). The test was carried out on the KinaseProfiler™ protein kinase activity detection platform of Eurofins, and the experimental results were provided by the company. The procedure was as follows: Chk1 and Chk2 kinases were diluted with 20 mM MOPS (morpholinpropane sulfonic acid), 1 mM EDTA (ethylenediaminetetraacetic acid), 0.04% Brij-35, 5% glycerol, 0.1% 2-mercaptoethanol, 1 mg/mL BSA (bovine serum albumin) and added to the reaction system, and the reaction system contained the embodiment compounds, 8 mM MOPS pH 7.0, 0.2 mM EDTA, […] polypeptide substrate ([…], SEQ ID NO: 1), 10 mM magnesium acetate and a certain concentration of [γ-33P]-ATP (the strength was about 500 cpm/pmol). A mixture solution of Mg^2′ and ATP (adenosine triphosphate) was added to initiate the reaction and the reaction solution was incubated at room temperature for 40 min. 0.5% Phosphate buffer was added to terminate the reaction. 10 μL of the reaction solution was filtered four times on a continuous filter P30, washed three times with […], and once with methanol, each wash for 4 min. The value was read with scintillation counting method after drying.

Chk2 = Chk2 (Homo sapiens (Human), UniProt O96017); experiment: Chk2 kinase activity test, Eurofins KinaseProfiler, [γ-33P]-ATP peptide substrate phosphorylation; format: biochemical
Sequence of Chk2 (O96017 whole entry): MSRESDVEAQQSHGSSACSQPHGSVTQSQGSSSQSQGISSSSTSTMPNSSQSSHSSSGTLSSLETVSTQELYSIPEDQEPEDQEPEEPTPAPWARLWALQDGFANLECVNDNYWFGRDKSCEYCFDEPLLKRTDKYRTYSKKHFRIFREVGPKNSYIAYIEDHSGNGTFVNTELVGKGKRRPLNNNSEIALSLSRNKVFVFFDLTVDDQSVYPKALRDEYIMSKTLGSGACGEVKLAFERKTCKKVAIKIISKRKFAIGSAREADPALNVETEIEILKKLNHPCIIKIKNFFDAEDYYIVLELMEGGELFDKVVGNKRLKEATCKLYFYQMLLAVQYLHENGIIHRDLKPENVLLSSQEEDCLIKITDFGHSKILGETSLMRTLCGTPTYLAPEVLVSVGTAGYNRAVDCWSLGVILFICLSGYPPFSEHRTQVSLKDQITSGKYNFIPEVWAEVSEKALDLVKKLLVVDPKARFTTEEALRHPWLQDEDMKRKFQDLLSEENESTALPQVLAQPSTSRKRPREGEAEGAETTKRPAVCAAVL
Description: The compounds of the present disclosure used in the experiments were self-prepared, and their chemical names and structural formulas were shown in the preparation embodiments of each compound. […] The test was carried out on the KinaseProfiler™ protein kinase activity detection platform of Eurofins, and the experimental results were provided by the company. […] A mixture solution of Mg^2′ and ATP (adenosine triphosphate) was added to initiate the reaction and the reaction solution was incubated at room temperature for 40 min. 0.5% Phosphate buffer was added to terminate the reaction. […] The value was read with scintillation counting method after drying.

[1] = Pharmacokinetic evaluation of compounds in mice; format: in vivo; settings: mouse, plasma, female C57BL/6 mice; for bioavailability: oral, gavage 10 mg/kg vs intravenous 1 mg/kg, read-out: F (bioavailability); for AUC(0-t): 0 to 24 h; for Cmax: route not given (gavage group 10 mg/kg); for half-life: read-out: Intravenous injection T1/2 (converted)
[2] = tested on: human ovarian cancer OVCAR-3 subcutaneous xenograft tumor; experiment: In vivo pharmacodynamics, human ovarian cancer OVCAR-3 subcutaneous xenograft tumor BALB/c nude mouse model; set-up: species or system BALB/c nude mice; settings: oral twice a day, Compound 18 75 mg/kg, Compound 19 25 mg/kg; for Tumor volume (D 21): D 21, mean ± SEM, n = 6
Description: Experimental purpose: To evaluate the in vivo efficacy of the compounds of the present disclosure in the human ovarian cancer OVCAR-3 subcutaneous xenograft tumor BALB/c nude mouse model.
Experimental animal: Female BALB/c nude mice, 6-8 weeks old, weighing 18-22 grams; supplier: Beijing Vital River Laboratory Animal Technology Co., Ltd. Experimental methods and steps:
Human ovarian cancer OVCAR-3 (ATCC-HTB-161) cells were cultured in vitro in monolayer, and the culture conditions were RPMI1640 culture medium with 20% fetal bovine serum, 0.01 mg/mL bovine insulin, and 1% double antibody, and the cells were incubated at 37° C., 5% CO2 incubator. Routine digestion with trypsin was performed twice a week for passage. When the cell saturation was 80%-90% and the number reached the requirement, the cells were harvested, counted and inoculated.
0.1 mL (10×10^6 cells) of OVCAR-3 cells were subcutaneously inoculated into the right back of each mouse, and the mice were administrated in groups when the average tumor volume reached 122 mm^3.
Compound 18, compound 19 were formulated as 2 mg/mL clear solutions with 10% dimethyl sulfoxide-20% polyethylene glycol 400-5% Tween 80-65% water.
Tumor diameters were measured with vernier calipers twice a week. The calculation formula of tumor volume was. V=0.5a×b^2, where a and b represented the long and short diameters of the tumor, respectively.
The antitumor efficacy of the compounds was evaluated by TGI (%). TGI (%), reflecting tumor growth inhibition rate. TGI (%/c)=[(1-(average tumor volume at the end of administration of a certain treatment group-average tumor volume at the beginning of administration of this treatment group)/(average tumor volume at the end of treatment in the solvent control group-average tumor volume at the beginning of administration of this solvent control group)]×100%. The relative tumor volume (RTV) was calculated according to the results of tumor measurement, and the calculation formula was RTV=Vt/V0, where V0 was measured at the time of group administration (i.e., D0), and Vt was the average tumor volume at the time of one measurement.
Statistical analysis was performed using SPSS software based on RTV data at the end of the test. The Ttest was used for the comparison between two groups, and the one-way ANOVA was used for the comparison between three or more groups. If the variance was homogeneous (no significant difference in F value), Tukey's method was used for analysis; if the variance was not homogeneous (significant difference in F value), Games-Howell method was used for test. p<0.05 was considered that a significant difference was performed.

[3] = po, gavage 10 mg/kg, read-out: Oral AUC0-last
[4] = intravenous injection 1 mg/kg, read-out: Intravenous Injection AUC0-last

Sequence of Chk1 (O14757 whole entry): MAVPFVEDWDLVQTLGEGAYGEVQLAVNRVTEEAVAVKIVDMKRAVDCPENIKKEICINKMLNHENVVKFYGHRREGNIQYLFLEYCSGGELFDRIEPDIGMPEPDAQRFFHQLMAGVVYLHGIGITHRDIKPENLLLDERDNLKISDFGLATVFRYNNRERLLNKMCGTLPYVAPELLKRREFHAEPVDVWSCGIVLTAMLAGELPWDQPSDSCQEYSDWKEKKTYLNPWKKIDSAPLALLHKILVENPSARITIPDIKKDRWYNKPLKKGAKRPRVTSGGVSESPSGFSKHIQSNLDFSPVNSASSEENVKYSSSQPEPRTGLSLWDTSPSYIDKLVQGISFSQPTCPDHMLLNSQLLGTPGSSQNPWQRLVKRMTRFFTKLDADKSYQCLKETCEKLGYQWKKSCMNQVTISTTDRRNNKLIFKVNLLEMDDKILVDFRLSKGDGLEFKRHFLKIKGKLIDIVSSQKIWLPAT

Structure (SMILES): COc1ccccc1-c1cc(Nc2cnc3ccn(C4CCNCC4)c3n2)n[nH]1 [Compound 10]
- pIC50 (Chk1): 8.70
- pIC50 (Chk2; read-out: Chk2 inhibition IC50): 7.21

Structure (SMILES): COc1ccc(F)cc1-c1cc(Nc2cnc3ccn(C4CCNCC4)c3n2)n[nH]1 [Compound 8]
- pIC50 (Chk1): 9.00
- pIC50 (Chk2; read-out: Chk2 inhibition IC50): 6.73

Structure (SMILES): COc1nc(C)ccc1-c1cc(Nc2cnc3ccn(C4CCN(C)CC4)c3n2)n[nH]1 [Compound 18]
- bioavailability [1]: 33.2%
- AUC(0-t) [1, 3]: 3.63 µM·h
- Cmax ([1]; po): 1220 nM
- Vd ([1]; intravenous injection 1 mg/kg): 1.9 L/kg
- clearance ([1]; intravenous injection 1 mg/kg): 35.3 mL/min/kg
- AUC(0-t) [1, 4]: 1.14 µM·h
- half-life ([1]; intravenous injection 1 mg/kg): 0.9 h
- Tumor volume (D 21) [2]: 180 ± 16 mm^3
- Tumor volume (D 21) ([2]; listed as compound 18): 180 mm^3
- RTV (D 21) [2]: 1.49
- TGI (%) (D 21) [2]: 92.34%
- TGI (%) (D 21) ([2]; listed as compound 18): 92.3%

Structure (SMILES): [2H]c1cn(C2CCNCC2)c2nc(Nc3cc(-c4ccc(C)nc4OC)[nH]n3)cnc12 [Compound 6]
- pIC50 (Chk1): > 9.00
- pIC50 (Chk2): 7.19

Structure (SMILES): [2H]C([2H])([2H])Oc1nc(C)ccc1-c1cc(Nc2cnc3ccn(C4CCN(C([2H])([2H])[2H])CC4)c3n2)n[nH]1 [Compound 22]
- pIC50 (Chk1): 9.00
- pIC50 (Chk2): 6.41

Structure (SMILES): COc1nc(C)ccc1-c1cc(Nc2cnc3ccn(C[C@H]4CCNC4)c3n2)n[nH]1 [Compound 5]
- pIC50 (Chk1): 8.52
- pIC50 (Chk2; read-out: Chk2 inhibition IC50): 6.43

Structure (SMILES): COc1cc(C)ccc1-c1cc(Nc2cnc3ccn(C4CCNCC4)c3n2)n[nH]1 [Compound 13]
- pIC50 (Chk1): 8.70
- pIC50 (Chk2; read-out: Chk2 inhibition IC50): 7.08

Structure (SMILES): COc1nc(C)ccc1-c1cc(Nc2cnc3c(F)cn(C4CCN(C)CC4)c3n2)n[nH]1 [Compound 19]
- bioavailability [1]: 39.1%
- AUC(0-t) [1, 3]: 3.91 µM·h
- Cmax ([1]; po): 1220 nM
- Vd ([1]; intravenous injection 1 mg/kg): 2.4 L/kg
- clearance ([1]; intravenous injection 1 mg/kg): 33.1 mL/min/kg
- AUC(0-t) [1, 4]: 1.15 µM·h
- half-life ([1]; intravenous injection 1 mg/kg): 1.1 h
- Tumor volume (D 21) [2]: 131 mm^3 and 131 ± 12 mm^3
- RTV (D 21) [2]: 1.14
- TGI (%) (D 21) [2]: 98.8% and 98.76%

Structure (SMILES): COc1nc(C)ccc1-c1cc(Nc2cnc3ccn(CC4CNC4)c3n2)n[nH]1 [Compound 4]
- pIC50 (Chk1): 8.52
- pIC50 (Chk2; read-out: Chk2 inhibition IC50): 6.48

Structure (SMILES): COc1nc(C)ccc1-c1cc(Nc2cnc3ccn(C4CCNCC4)c3n2)n[nH]1 [Compound 1]
- pIC50 (Chk1): > 9.00

Structure (SMILES): COc1cc(Cl)ccc1-c1cc(Nc2cnc3ccn(C4CCNCC4)c3n2)n[nH]1 [Compound 14]
- pIC50 (Chk1): 9.00
- pIC50 (Chk2; read-out: Chk2 inhibition IC50): 7.14

Structure (SMILES): [2H]C([2H])([2H])Oc1nc(C)ccc1-c1cc(Nc2cnc3c(F)cn(C4CCN(C)CC4)c3n2)n[nH]1 [Compound 20]
- pIC50 (Chk1): 8.70
- pIC50 (Chk2): 6.55
- bioavailability [1]: 41.9%
- AUC(0-t) [1, 3]: 5.13 µM·h
- Cmax ([1]; po): 1260 nM
- Vd ([1]; intravenous injection 1 mg/kg): 2.7 L/kg
- clearance ([1]; intravenous injection 1 mg/kg): 30.9 mL/min/kg
- AUC(0-t) [1, 4]: 1.21 µM·h
- half-life ([1]; intravenous injection 1 mg/kg): 1.4 h

Structure (SMILES): COc1nc(C)ccc1-c1cc(Nc2cnc3c(F)cn(C4CCNCC4)c3n2)n[nH]1 [Compound 2]
- pIC50 (Chk1): 8.70

Structure (SMILES): COc1cc(F)ccc1-c1cc(Nc2cnc3ccn(C4CCNCC4)c3n2)n[nH]1 [Compound 12]
- pIC50 (Chk1): 9.00
- pIC50 (Chk2; read-out: Chk2 inhibition IC50): 7.49

Structure (SMILES): [2H]C([2H])([2H])N1CCC(n2ccc3ncc(Nc4cc(-c5ccc(C)nc5OC)[nH]n4)nc32)CC1 [Compound 21]
- pIC50 (Chk1): 9.00
- pIC50 (Chk2): 6.44

Structure (SMILES): Fc1cccc(OC(F)(F)F)c1-c1cc(Nc2cnc3ccn(C4CCNCC4)c3n2)n[nH]1 [Compound 11]
- pIC50 (Chk1): 8.52
- pIC50 (Chk2; read-out: Chk2 inhibition IC50): 7.00

Structure (SMILES): COc1nc(C(F)(F)F)ccc1-c1cc(Nc2cnc3ccn(C4CCNCC4)c3n2)n[nH]1 [Compound 9]
- pIC50 (Chk1): 8.70
- pIC50 (Chk2; read-out: Chk2 inhibition IC50): 6.00

From patent publication US11634424B2 (priority 2019, dated 2023)
